Test results published in patent US20240269139A1, “COMPOUNDS FOR TARGETED PROTEIN DEGRADATION OF KINASES” (DANA-FARBER CANCER INSTITUTE, INC., priority 2020, published 2024).

Tested on: protein kinases (human kinome)
Format: cell-based
Conditions: for kinases the bifunctional compound degrades: as stated for the structure in the embodiments; for Kinase hits: kinases significantly downregulated vs DMSO (fold change cutoff −1.25, P-value<0.01), ≤8 h, 0.1-5 μM degrader, 7 cell lines; for Total no. kinase hits: number of degraded kinases per library compound
From the text: Although development of targeted protein degraders requires a POI binder, among already-liganded proteins such as kinases, it was hypothesized that different targets would have a different propensity for current approaches to degrader-mediated destruction, which was termed ‘degradability’. […] It was rationalized that the probability of identifying the same kinase as a false positive in multiple treatments is low, therefore this analysis served to also assess the robustness of our data and subsequent interpretations. […] Overall, 62 protein kinases were degraded in more than 10 independent treatments, and remarkably, 9 of these (CDK4, AURKA, FER, WEE1, BLK. LIMK2, CDK6, GAK, LIMK1) were each degraded in at least 40 of the 154 independent treatments, emphasizing their predisposition to induced degradation (FIG. 1G; Appendix I).
Next, the frequency of degradation assessment was corrected for over-representation of molecules in the full dataset by omitting replicate profiling of compounds under different experimental conditions, to remove any bias. […] Unsurprisingly, the top degradable kinases mirror those from the previous analysis (CDK4, AURKA, FER, WEE1, BLK), confirming that in sufficiently large datasets, even with over-representation of certain molecules, frequency of degradation is a good measure of general tractability.

| SMILES | kinases the bifunctional compound degrades | Kinase hits | Total no. kinase hits |
| --- | --- | --- | --- |
| O=C(COc1cccc2c1C(=O)N(C1CCC(=O)NC1=O)C2=O)NCCCCCCCC(=O)NC1(c2ccc(-c3nc4ccn5c(=O)[nH]nc5c4cc3-c3ccccc3)cc2)CCC1 (centres unmarked) [INY-01-140-1] | PDK1, PDK2, and PDK3 | PDK1, PDK2, PDK3 | 3 |
| C[C@@H]1C[C@@H](O)c2ncnc(N3CCN(C(=O)[C@H](CNCCCCCCCCNC(=O)COc4cccc5c4C(=O)N(C4CCC(=O)NC4=O)C5=O)c4ccc(Cl)cc4)CC3)c21 (some centres unmarked) [INY-02-164] | – | AKT1, AKT2, AKT3, BCKDK, PDK1 | 5 |
| C[C@@H]1C[C@@H](O)c2ncnc(N3CCN(C(=O)[C@H](CNCCCCCCCCCCc4cccc5c4C(=O)N(C4CCC(=O)NC4=O)C5=O)c4ccc(Cl)cc4)CC3)c21 (some centres unmarked) [INY-03-041-01] | – | AKT1, AKT2, AKT3, CDK4, MAPK6, STK17A | 6 |
| Cc1ncsc1-c1ccc([C@H](C)NC(=O)[C@@H]2C[C@@H](O)CN2C(=O)[C@@H](NC(=O)CCCCOc2ccccc2-c2ccc3nc(-c4cccnc4N)n(-c4ccc(C5(N)CCC5)cc4)c3n2)C(C)(C)C)cc1 [INY-04-125-01] | LATS1 and STK17A | LATS1, STK17A | 2 |
| Cc1cnc(Nc2ccc(N3CCN(CCOCCOCCNC(=O)COc4cccc5c4C(=O)N(C4CCC(=O)NC4=O)C5=O)CC3)cc2)nc1Nc1cccc(S(=O)(=O)NC(C)(C)C)c1 (centres unmarked) [JWG-118] | AAK1, AURKA, BMP2K, GAK, and WEE1 | AAK1, AURKA, BMP2K, GAK, WEE1 | 5 |
| CS(=O)(=O)c1ccc(-c2cccn3nc(Nc4cccc(N5CCN(CCCCCCNC(=O)COc6cccc7c6C(=O)N(C6CCC(=O)NC6=O)C7=O)CC5)c4)nc23)cc1 (centres unmarked) [JWG-120] | AAK1 and AURKA | AAK1, AURKA | 2 |
| Cc1cnc(Nc2ccc(N3CCN(CCOCCOCCC(=O)N[C@H](C(=O)N4C[C@H](O)C[C@H]4C(=O)N[C@@H](C)c4ccc(-c5scnc5C)cc4)C(C)(C)C)CC3)cc2)nc1Nc1cccc(S(=O)(=O)NC(C)(C)C)c1 [JWG-122] | AAK1 and GAK | AAK1, GAK | 2 |
| Cc1cnc(Nc2ccc(N3CCN(CCCCCCC(=O)N[C@H](C(=O)N4C[C@H](O)C[C@H]4C(=O)N[C@@H](C)c4ccc(-c5scnc5C)cc4)C(C)(C)C)CC3)cc2)nc1Nc1cccc(S(=O)(=O)NC(C)(C)C)c1 [JWG-123] | – | AAK1, CDK16, WEE1, GAK, MARK4, NEK9, RPS6KB1, SIK2, SIK3, SNRK, STKI7A, STK17B | 12 |
| Cc1ncsc1-c1ccc([C@H](C)NC(=O)[C@@H]2C[C@@H](O)CN2C(=O)[C@@H](NC(=O)CCCCCCc2ccc(Nc3ncc4c(n3)-c3ccccc3NC(=O)N4)cc2)C(C)(C)C)cc1 [JWG-148] | ABL2, EPHB2, SIK2, and TYK2 | ABL2, EPHB2, SIK2, TYK2 | 4 |
| CC(C)S(=O)(=O)c1ccccc1Nc1nc(Nc2ccc(N3CCN(CCOCCOCCNC(=O)CNc4ccc5c(c4)C(=O)N(C4CCC(=O)NC4=O)C5=O)CC3)cc2)ncc1Cl (centres unmarked) [LT2-49, N-(2-(2-(2-(4-(4-((5-chloro-4-((2-(isopropylsulfonyl)phenyl)amino)pyrimidin-2-yl)amino)phenyl)piperazin-1-yl)ethoxy)ethoxy)ethyl)-2-((2-(2,6-dioxopiperidin-3-yl)-1,3-dioxoisoindolin-5-yl)amino)acetamide] | CDK4, AURKA, WEE1, BLK, FER, CDK6, LIMK2, AAK1, CDK5, CDK2, ITK, CDK17, LCK, PTK2B, CDK9, CDK7, CDK13, PRKAA1, CDK12, BMP2K, and STK10 | CDK4, AURKA, WEE1, BLK, FER, CDK6, LIMK2, AAK1, CDK5, CDK2, ITK, CDK17, LCK, PTK2B, CDK9, CDK7, CDK13, PRKAA1, CDK12, BMP2K, STK10 | 21 |
| CNC(=O)c1ccccc1Nc1cc(Nc2ccc(N3CCN(CCOCCOCCNC(=O)CNc4cccc5c4C(=O)N(C4CCC(=O)NC4=O)C5=O)CC3)cc2OC)ncc1C(F)(F)F (centres unmarked) [MFH-5-103-1] | AURKA, CDK1O, CDK7, MAPK7, PTK2B, RPS6KA1, RPS6KA3, STK33, and WEE1 | AURKA, CDK10, CDK7, MAPK7, PTK2B, RPS6KA1, RPS6KA3, STK33, WEE1 | 9 |
| CCc1cnn2c(N(Cc3ccc(N)nc3)C(=O)CCOCCOCCOCCNC(=O)CNc3cccc4c3C(=O)N(C3CCC(=O)NC3=O)C4=O)cc(N3CCCC[C@H]3CCO)nc12 (some centres unmarked) [MFH-5-115-2] | CDK4. AURK4. WEE1. STK17A, PLK1, BUB1, TTK, UHMK1, MAP3K1, BUB1B, RIOK2, NUAK1, PIM2, and CSNK1A1 | CDK4, AURK4, WEE1, STK17A, PLK1, BUB1, TTK, UHMK1, MAP3K1, BUB1B, RIOK2, NUAK1, PIM2, CSNK1A1 | 14 |
| CNC(=O)c1ccccc1Nc1cc(Nc2ccc(N3CCN(CCCCCCCCNc4cccc5c4C(=O)N(C4CCC(=O)NC4=O)C5=O)CC3)cc2OC)ncc1C(F)(F)F (centres unmarked) [MFH-5-116-1] | AURKA, NUAK1, PTK2B, RPS6KA1, RPS6KA3, STK33, and WEE1 | AURKA, NUAK1, PTK2B, KPS6KA1, RPS6KA3, STK33, WEE1 | 7 |
| O=C1CCC(N2C(=O)c3cccc(NCCCCCCCCN4CCC(NC(=O)c5[nH]ncc5NC(=O)c5c(Cl)cccc5Cl)CC4)c3C2=O)C(=O)N1 (centres unmarked) [MFH-5-126-1] | AURKA, BUB1, BUB1B, CDK13, CDK14, CDK17, CDK4, CDK9, CHEK1, CLK1, CSNK1A1, CSNK1D, DAPK1, ERN1, GSK3A, GSK3B, MAP3K1, NUAK1, PIK3CG, PIM2, PLK1, RIOK2, STK17A, STK7B, TTK, UHMK1, and WEE1 | AURKA, BUB1, BUB1B, CDK13, CDK14, CDK17, CDK4, CDK9, CHEK1, CLK1, CSNK1A1, CSNK1D, DAPK1, ERN1, GSK3A, GSK3B, MAP3K1, NUAK1, PIK3CG, PIM2, PLK1, RIOK2, STK17A, STK17B, TTK, UHMK1, WEE1 | 27 |
| Nc1ncnc2c1c(-c1ccc(Oc3ccccc3)cc1)nn2[C@H]1CC[C@H](N2CCN(CCOCCNC(=O)CNc3cccc4c3C(=O)N(C3CCC(=O)NC3=O)C4=O)CC2)CC1 (some centres unmarked) [SB1-G-181] | – | ABL1, ABL2, AURKA, BLK, CSK, CSNK1E, FYN, LATS1, LCK, LIMK1, MAP2K5, SRC | 12 |
| Cn1c(=O)c(-c2c(Cl)cccc2Cl)cc2cnc(Nc3ccc(OCCNC(=O)CCCCCCNC(=O)COc4cccc5c4C(=O)N(C4CCC(=O)NC4=O)C5=O)cc3)nc21 (centres unmarked) [SB1-G-192-1, N-(2-(4-((6-(2,6-dichlorophenyl)-8-methyl-7-oxo-7,8-dihydropyrido[2,3-d]pyrimidin-2-yl)amino)phenoxy)ethyl)-7-(2-((2-(2,6-dioxopiperidin-3-yl)-1,3-dioxoisoindolin-4-1413 yl)oxy)acetamido)heptanamide] | ABL1, ABL2, AURKA, BLK, CSK, EPHA3, EPHB6, FYN, GAK, LCK. LIMK2, MAPK14, NLK, PDK1, PKMYT1, SIK2, SRC, TNK2, WEE1, and YES1 | ABL1, ABL2, AURKA, BLK, CSK, EPHA3, EPHB6, FYN, GAK, LCK, LIMK2, MAPK14, NLK, PDK1, PKMYT1, SIK2, SRC, TNK2, WEE1, YES1 | 20 |
| O=C(CCCCCCNC(=O)COc1cccc2c1C(=O)N(C1CCC(=O)NC1=O)C2=O)NCCOc1ccc(Nc2ncc3ccc(=O)n(C4CC5CCC4C5)c3n2)cc1 (centres unmarked) [SB1-G-194] | AAK1, AURKA, AURKB, CDK6, CDK9, FGR2, STK17A, and TTK | AAK1, AURKA, AURKB, CDK6, CDK9, FGR2, STK17A, TTK | 8 |
| Nc1ncnc2c1c(-c1ccc(Oc3ccccc3)cc1)nn2[C@H]1CC[C@H](N2CCN(CCCCCCNC(=O)COc3cccc4c3C(=O)N(C3CCC(=O)NC3=O)C4=O)CC2)CC1 (some centres unmarked) [SB1-G-200] | ABL1, ABL2, BLK, CSNK1E. CSK, FYN, LATS1, LCK, LIMK1, MAP2K5, and SRC | ABL1, ABL2, BLK, CSNK1E, CSK, FYN, LATS1, LCK, LIMK1, MAP2K5, SRC | 11 |
| CC(C)S(=O)(=O)c1ccccc1Nc1nc(Nc2ccc(N3CCN(CCOCCOCCOCCNC(=O)CNc4cccc5c4C(=O)N(C4CCC(=O)NC4=O)C5=O)CC3)cc2)ncc1Cl (centres unmarked) [SK-3-87, N-(2-(2-(2-(2-(4-(4-((5-chloro-4-((2-(isopropylsulfonyl)phenyl)amino)pyrimidin-2-yl)amino)phenyl)piperazin-1-yl)ethoxy)ethoxy)ethoxy)ethyl)-2-((2-(2,6-dioxopiperidin-3-yl)-1,3-dioxoisoindolin-4-yl)amino)acetamide] | AAK1, AURKA, BLK, CDK12, CDK17, CDK2, CDK5, CDK7, CDK9, FER, ITK, LCK, LIMK2, PTK2B, and WEE1 | AAK1, AURKA, BLK, CDK12, CDK17, CDK2, CDK5, CDK7, CDK9, FER, ITK, LCK, LIMK2, PTK2B, WEE1 | 15 |
| CC(C)S(=O)(=O)c1ccccc1Nc1nc(Nc2ccc(N3CCN(CCOCCOCCOCCNC(=O)CNc4ccc5c(c4)C(=O)N(C4CCC(=O)NC4=O)C5=O)CC3)cc2)ncc1Cl (centres unmarked) [SK-3-89] | AAK1, AURKA, BLK, CDK12, CDK17, CDK2, CDK4, CDK5, CDK6, CDK7, CDK9, FER, ITK, LCK, LIMK2, PTK2B, STK10, and WEE1 | AAK1, AURKA, BLK, CDK12, CDK17, CDK2, CDK4, CDK5, CDK6, CDK7, CDK9, FER, ITK, LCK, LIMK2, PTK2B, STK10, WEE1 | 18 |
